Values of other authors as cited in patent publication US9072749B2, “Treatment of age-related macular degeneration” (priority 2007, dated 2015).
Read-outs that look alike come from different tables or passages of the source.

Tests used:
[1] = system: choroidal neovascularization; settings: in vivo
dogs = settings: oral dosing in dogs
[2] = oral dosing in dogs
D1/D5 receptor = settings: anesthetized rabbits

CC1=C(/C=C/C(C)=C/C=C/C(C)=C/C=C/C=C(C)/C=C/C=C(C)/C=C/C2=C(C)C(=O)C(O)CC2(C)C)C(C)(C)CC(O)C1=O (stereo not shown) [Astaxanthin]
choroidal neovascularization [1]: inhibit choroidal neovascularization

Oc1ccc(C2CNCCc3c2cc(O)c(O)c3Cl)cc1 (stereo not shown) [Fenoldopam]
duration of drug blood level and increase in renal blood flow (dogs; FIGS. 2a and 2b): relatively short duration | plasma fenoldopam (drug blood) level [2]: rapidly gives high drug blood level

CCNC(=O)Oc1ccc([C@H]2CNCCc3c2cc(OC(=O)NCC)c(OC(=O)NCC)c3Cl)cc1 [SKF 10508]
time for which the increase in renal blood flow is sustained (dogs; FIGS. 3A and 3B): greater than 6 hours | plasma fenoldopam (drug blood) level [2]: more gradual increase of drug blood level | plasma fenoldopam (drug blood) level ([2]; listed as SK&F 105058): release fenoldopam slowly after oral absorption

NCCc1ccc(O)c(O)c1 [dopamine]
choroidal vasodilation (D1/D5 receptor): caused choroidal vasodilation
